The source of these data is US9550796B2, “Pyrrolopyrrolone derivatives and their use as BET inhibitors” (NOVARTIS AG, priority 2013, dated 2017).

Some results are limits rather than exact numbers.

For one assay, the system named is MV-4-11. Description: Cell growth inhibition assay (CellTiter-Glo), MV-4-11. The note with it: MV-4-11 cells, 4 days; for GI50: Homo sapiens, MV4-11, 96 h, half-maximal growth inhibition; for MV-4-11 TGI: total growth inhibition. Format: cell-based, human. The protocol: (§1) Cell Growth Inhibition Assay
(§2) The human leukemia cell lines MV-4-11, THP-1 and K-562 were employed to characterize the effect of BET inhibitors on cellular proliferation and viability. Cells were obtained from the American Type Culture Collection (ATCC) and cultured at 37° C. in a humidified 5% CO2 incubator in the following media: MV-4-11: DMEM high glucose (Animed #1-26F01-I), 10% FCS (Animed #2-01F26-I), 4 mM L-Glutamine (Animed #5-10K50), 1 mM Sodium Pyruvate (Animed # G03625P), 1× Penicillin-Streptomycin (Animed # F12478P); K-562: Iscove's MEM (Animed #1-28F16-I), 10% FCS (Animed #2-01F26-I), 4 mM L-Glutamine (Animed #5-10K50), 1× Penicillin-Streptomycin (Animed # F12478P); THP-1: RPMI-1640 (Animed #1-41F01-I), 10% FCS (Animed #2-01F26-I), 2 mM L-Glutamine (Animed #5-10K50), 10 mM HEPES (Animed #5-31F100), 1 mM Sodium Pyruvate (Animed # G03625P), 1× Penicillin-Streptomycin (Animed # F12478P). The AML lines MV-4-11 and THP-1 are very sensitive to BET inhibitors and show massive cell death upon BET inhibition (Zuber et al., Nature, 478 (2011), 524-8). Compound-mediated suppression of cell proliferation/viability was assessed by quantification of cellular ATP levels using the CellTiter-Glo (CTG) reagent (Promega). Briefly, cells were seeded in 20 μl fresh medium into 384-well plates, followed by addition of 5 μL medium containing compound dilutions at 5-fold their final intended concentration. Dose-response effects were assessed by 3-fold serial dilutions of the test compound, starting at 10 μM. Following incubation of the cells for 4 days at 37° C. and 5% CO2, the effect of inhibitors on cell viability was quantified following addition of 20 μl CTG and luminescence quantification (integration time: 100 ms) as per vendor manual, using a correspondingly equipped Tecan M200 multi-mode platereader (TECAN, Switzerland). For data analysis, the assay background value determined in wells containing medium, but no cells, was subtracted from all data points. To enable differentiation of cytotoxic from cytostatic compounds, the number of viable cells is assessed relative to that observed at the time of compound addition using a separate cell plate (day 0). The effect of a particular test compound concentration on cell proliferation/viability is expressed as percentage of the background- and day 0-corrected luminescence reading obtained for cells treated with vehicle only (DMSO, 0.1% final concentration), which is set as 100%, whereas that luminescence reading for wells containing medium is set as −100%. Compound concentrations leading to half-maximal (IC50) and total growth inhibition (TGI) were determined using standard four parameter curve fitting.

In another assay the target is CREBBP (Homo sapiens (Human), UniProt Q92793). Description: AlphaScreen in-vitro binding assay for CREBBP. Particulars: 324 nM His-CREBBP (1081-1197), acetyl-histone H4 (AcK 5, 8, 12) peptide. The protocol: AlphaScreen In-Vitro Binding Assay for CREBBP
In order to assess bromodomain selectivity, we set up a binding assay using the bromodomain encoded by the CREBBP gene. […] The assay was started by stepwise addition of 4.5 μL per well of bromo domain protein (50 mM HEPES, pH 7.5, 0.005% Tween20, 0.02% BSA, 150 mM NaCl, 324 nM His-CREBBP (1081-1197) (custom production at Viva Biotech Ltd.)) and 4.5 μL per well of peptide solution (50 mM HEPES, pH 7.5, 0.005% Tween20, 0.02% BSA, 150 mM NaCl, 120 nM acetyl-histone H4 (AcK 5, 8, 12) (Biosyntan GmbH)). Reactions were incubated at 30° C. for 35 minutes. Subsequently 4.5 μL per well detection mix (50 mM HEPES, pH 7.5, 0.005% Tween20, 0.02% BSA, 150 mM NaCl, 45 μg/ml Ni-chelate acceptor beads, 45 μg/mL streptavidin-donor beads) (Perkin Elmer)) were added. After 60 minutes incubation at room temperature, plates were measured in a Perkin Elmer EnVision multilabel reader. IC50 values were determined from percent inhibition values at different compound concentrations by non-linear regression analysis.
Test compounds were dissolved in DMSO (10 mM) and transferred into 1.4 mL flat bottom or V-shaped Matrix tubes carrying a unique 2D matrix. The stock solutions were stored at […] if not used immediately. For the test procedure the vials were defrosted and identified by a scanner whereby a working sheet was generated that guided the subsequent working steps. Compound dilutions were made in 96 well plates. This format enabled the assay of maximally […] at 8 concentrations (single points) including 4 reference compounds, if desired (known BET inhibitors from the prior art, for this and other assays of the type disclosed herein). The dilution protocol included the production of “pre-dilution plates”, “master plates” and “assay plates”.
Polypropylene 96-well plates were used as pre-dilution plates. A total of 4 pre-dilution plates were prepared including 10 test compounds each on the plate positions A1-A10, one standard compound at A11 and one DMSO control at […]. All dilution steps were done on a HamiltonSTAR robot.
30 μL of individual compound dilutions including standard compound and controls of the 4 “pre-dilution plates” were transferred into a 384-well “master plate” including the following concentrations 10000, […], 1000, 300, 100, 30, 10 and 3 μM, respectively in 90% of DMSO.
Identical “assay plates” were then prepared by pipetting 50 nL each of compound dilutions of the “master plates” into 384-well “assay plates” by means of a HummingBird 384-channel dispenser. These plates were used directly for the assay which was performed in a total volume of 13.55 μL.

Another assay concerns the target BRD4 (Homo sapiens (Human), UniProt O60885). As to the kind of experiment: TR-FRET in-vitro binding assay for BRD4. The note with it: 45 nM His-Brd4(44-477), acetyl-histone H4 (AcK 5, 8, 12, 16) peptide. The protocol:
(§3) TR-FRET In-Vitro Binding Assays for BRD2, BRD3, and BRD4: All assays were performed in 384-well microtiter plates. […] Liquid handling and incubation steps were done on an Innovadyne Nanodrop Express equipped with a robotic arm (Thermo CatX, Perkin Elmer/Caliper Twister II) and an incubator (Liconic STX40, Thermo Cytomat 2C450). The assay plates were prepared by addition of 50 nl per well of compound solution in 90% DMSO HummingBird nanodispenser (Zinsser Analytic). […] Reactions were incubated at 30° C. for 35 minutes. […] After 35 minutes incubation at 30° C., plates were measured in a Perkin Elmer EnVision multilabel reader. […] The stock solutions were stored at […] if not used immediately. For the test procedure the vials were defrosted and identified by a scanner whereby a working sheet was generated that guided the subsequent working steps. Compound dilutions were made in 96 well plates. This format enabled the assay of maximally […] at 8 concentrations (single points) including 4 reference compounds, if desired (known BET inhibitors from the prior art, for this and other assays of the type disclosed herein). The dilution protocol included the production of “pre-dilution plates”, “master plates” and “assay plates”. Polypropylene 96-well plates were used as pre-dilution plates. […] All dilution steps were done on a HamiltonSTAR robot. […] Identical “assay plates” were then prepared by pipetting 50 nL each of compound dilutions of the “master plates” into 384-well “assay plates” by means of a HummingBird 384-channel dispenser. These plates were used directly for the assay which was performed in a total volume of 13.55 μL.

The test system of another assay is THP-1. As to the kind of experiment: Cell growth inhibition assay (CellTiter-Glo), THP-1. Format: cell-based, human. Particulars: THP-1 cells, 4 days; for GI50: Homo sapiens, 96 h, half-maximal growth inhibition; for THP-1 TGI: total growth inhibition. The protocol: as §1, §2
(In ATP-based viability assays light output follows the ATP content of the culture.)

The next assay concerns K-562. As to the kind of experiment: Cell growth inhibition assay (CellTiter-Glo), K-562. In kind it is cell-based, human. The note with it: K-562 cells, 4 days; for GI50: Homo sapiens, K562, 96 h, half-maximal growth inhibition; for K-562 TGI: total growth inhibition. The protocol: as §1, §2
A further assay addresses BRD3 (Homo sapiens (Human), UniProt Q15059). Description: TR-FRET in-vitro binding assay for BRD3. The note with it: 45 nM His-Brd3(20-477), acetyl-histone H4 (AcK 5, 8, 12, 16) peptide. The protocol: as §3

In general, GI50 refers to the concentration that inhibits growth by half. In general, IC50 refers to the concentration at which inhibition is half-maximal. A low value points to higher potency.

Sequence of CREBBP (Q92793 1081-1197): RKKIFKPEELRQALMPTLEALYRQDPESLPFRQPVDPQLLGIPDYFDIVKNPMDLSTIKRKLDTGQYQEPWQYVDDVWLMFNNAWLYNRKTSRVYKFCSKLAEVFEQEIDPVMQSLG
Sequence of BRD3 (Q15059 20-477): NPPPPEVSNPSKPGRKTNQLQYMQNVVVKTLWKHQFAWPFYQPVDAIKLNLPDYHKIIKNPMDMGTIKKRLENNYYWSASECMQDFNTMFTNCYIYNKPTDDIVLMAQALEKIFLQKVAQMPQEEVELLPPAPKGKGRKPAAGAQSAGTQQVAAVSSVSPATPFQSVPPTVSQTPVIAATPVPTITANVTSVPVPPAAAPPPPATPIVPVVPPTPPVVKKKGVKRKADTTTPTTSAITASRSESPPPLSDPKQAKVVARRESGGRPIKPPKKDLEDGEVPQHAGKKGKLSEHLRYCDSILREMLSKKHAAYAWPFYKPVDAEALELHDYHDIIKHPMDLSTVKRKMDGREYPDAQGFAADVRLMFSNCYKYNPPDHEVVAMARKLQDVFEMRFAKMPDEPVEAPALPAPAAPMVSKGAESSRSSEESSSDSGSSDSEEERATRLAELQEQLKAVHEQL

With `COc1ncccc1-c1cc2c(n1C)C(c1ccc(Cl)cc1)N(c1cc(C)c3nnc(C)n3c1)C2=O` (stereo in doubt) [Example 135, (R)-6-(4-chlorophenyl)-5-(3,8-dimethyl-[1,2,4]triazolo[4,3-a]pyridin-6-yl)-2-(2-methoxypyridin-3-yl)-1-methyl-5,6-dihydropyrrolo[3,4-b]pyrrol-4(1H)-one], the 50% growth inhibitory concentration (GI50) worked out at 6.08 nM in the assay on MV-4-11, 6.4 nM with THP-1 and 21.4 nM in the assay with K-562. Besides, the “MV-4-11 TGI” value in the assay with MV-4-11 came to 12.44 nM. Also, the IC50 was 470 nM on CREBBP, 14 nM on BRD4 and 21 nM on BRD3. In the assay on THP-1, the “THP-1 TGI” value turned out to be 14.95 nM. In the assay with K-562, the “K-562 TGI” value was above 10000 nM.

Consider `Cc1cc(N2C(=O)c3c(C4CC4)cn(C4COC4)c3C2c2ccc(Cl)cc2)cn2c(C)nnc12` (centres unmarked) [Example 18, 6-(4-chlorophenyl)-3-cyclopropyl-5-(3,8-dimethyl-[1,2,4]triazolo[4,3-a]pyridin-6-yl)-1-(oxetan-3-yl)-5,6-dihydropyrrolo[3,4-b]pyrrol-4(1H)-one], for which, in the assay on MV-4-11, the GI50 turned out to be 2.86 nM and the “MV-4-11 TGI” value was determined as 8.13 nM. This compound registered an IC50 at BRD4 of 12 nM. In the assay on THP-1, the GI50 amounted to 4.63 nM and the “THP-1 TGI” value is 13.35 nM. For the same compound, in the assay on K-562, the GI50 was found to be 16.4 nM and the “K-562 TGI” value is above 10000 nM.

As to `Cc1cc(N2C(=O)c3c(C4CC4)cn(C)c3C2c2ccc(Cl)cc2)cn2c(C)nnc12` (centres unmarked) [Example 35, 6-(4-chlorophenyl)-3-cyclopropyl-5-(3,8-dimethyl-[1,2,4]triazolo[4,3-a]pyridin-6-yl)-1-methyl-5,6-dihydropyrrolo[3,4-b]pyrrol-4(1H)-one], in the assay with MV-4-11, growth was halved (GI50) at 4.08 nM and the “MV-4-11 TGI” value amounted to 8.67 nM. The IC50 at CREBBP stood at 6100 nM. In the assay on THP-1, the GI50 was determined as 8.94 nM and the “THP-1 TGI” value was 17.85 nM. In addition, in the assay on K-562, the GI50 turned out to be 45.9 nM and the “K-562 TGI” value is above 10000 nM. At BRD3, the IC50 is 15 nM.

As for `Cc1cc(N2C(=O)c3c(C4CC4)cn(C)c3[C@H]2c2ccc(Cl)cc2)cn2c(C)nnc12` [Example 36, (R)-6-(4-chlorophenyl)-3-cyclopropyl-5-(3,8-dimethyl-[1,2,4]triazolo[4,3-a]pyridin-6-yl)-1-methyl-5,6-dihydropyrrolo[3,4-b]pyrrol-4(1H)-one], in the assay on MV-4-11, the GI50 worked out at 2.15 nM and the “MV-4-11 TGI” value stood at 6.22 nM. In addition, the IC50 on CREBBP amounted to 4100 nM. Moreover, in the assay with THP-1, the GI50 came to 3.36 nM and the “THP-1 TGI” value came to 10.91 nM. In the assay on K-562, it took 17.9 nM to inhibit growth by half (GI50) and the “K-562 TGI” value is above 10000 nM. For the same compound, the IC50 at BRD3 was 15 nM.

Turning to `Cc1cc2c(n1C)C(c1ccc(Cl)cc1)N(c1cc(Cl)c(=O)n(C)c1)C2=O` (centres unmarked) [Example 74, 5-(5-chloro-1-methyl-6-oxo-1,6-dihydropyridin-3-yl)-6-(4-chlorophenyl)-1,2-dimethyl-5,6-dihydropyrrolo[3,4-b]pyrrol-4(1H)-one], in the assay on MV-4-11, growth was halved (GI50) at 90.1 nM and the “MV-4-11 TGI” value worked out at 142 nM. Moreover, the IC50 on BRD4 was 23 nM. Besides, in the assay with THP-1, the concentration for 50% growth inhibition (GI50) worked out at 92.7 nM and the “THP-1 TGI” value came out at 171.5 nM. For the same compound, in the assay on K-562, the GI50 was determined as 273 nM and the “K-562 TGI” value was above 10000 nM.

For `Cn1ccc2c1C(c1ccc(Cl)cc1)N(c1cc(Cl)c(=O)n(C)c1)C2=O` (centres unmarked) [Example 76, 5-(5-chloro-1-methyl-6-oxo-1,6-dihydropyridin-3-yl)-6-(4-chlorophenyl)-1-methyl-5,6-dihydropyrrolo[3,4-b]pyrrol-4(1H)-one], in the assay with MV-4-11, the GI50 came to 108 nM and the “MV-4-11 TGI” value came to 178 nM. Further, the IC50 on BRD4 worked out at 37 nM. Also, in the assay on THP-1, the concentration for 50% growth inhibition (GI50) turned out to be 118 nM and the “THP-1 TGI” value was 238 nM. In addition, in the assay with K-562, halving of growth (GI50) required 368 nM and the “K-562 TGI” value is above 10000 nM.

Regarding `CC(=O)Nc1cn(C)c2c1C(=O)N(c1cc(C)c3nnc(C)n3c1)[C@@H]2c1ccc(Cl)cc1` [Example 136, (R)—N-(6-(4-chlorophenyl)-5-(3,8-dimethyl-[1,2,4]triazolo[4,3-a]pyridin-6-yl)-1-methyl-4-oxo-1,4,5,6-tetrahydropyrrolo[3,4-b]pyrrol-3-yl)acetamide], in the assay with MV-4-11, it took 19.8 nM to inhibit growth by half (GI50) and the “MV-4-11 TGI” value stood at 39.5 nM. Further, the IC50 at CREBBP was 1400 nM. Besides, in the assay on THP-1, the GI50 is 33.7 nM and the “THP-1 TGI” value stood at 79.2 nM. In addition, in the assay on K-562, growth was halved (GI50) at 119 nM and the “K-562 TGI” value is above 10000 nM.
